{"source": "patent US20240239766A1", "about": "“3-AMINO PIPERIDYL SODIUM CHANNEL INHIBITORS” (Genentech, Inc., priority 2021, published 2024)", "target": "hNav1.7 (Homo sapiens (Human), UniProt Q15858)", "sequence (Q15858 other isoform, or with tags, fused parts or gaps)": "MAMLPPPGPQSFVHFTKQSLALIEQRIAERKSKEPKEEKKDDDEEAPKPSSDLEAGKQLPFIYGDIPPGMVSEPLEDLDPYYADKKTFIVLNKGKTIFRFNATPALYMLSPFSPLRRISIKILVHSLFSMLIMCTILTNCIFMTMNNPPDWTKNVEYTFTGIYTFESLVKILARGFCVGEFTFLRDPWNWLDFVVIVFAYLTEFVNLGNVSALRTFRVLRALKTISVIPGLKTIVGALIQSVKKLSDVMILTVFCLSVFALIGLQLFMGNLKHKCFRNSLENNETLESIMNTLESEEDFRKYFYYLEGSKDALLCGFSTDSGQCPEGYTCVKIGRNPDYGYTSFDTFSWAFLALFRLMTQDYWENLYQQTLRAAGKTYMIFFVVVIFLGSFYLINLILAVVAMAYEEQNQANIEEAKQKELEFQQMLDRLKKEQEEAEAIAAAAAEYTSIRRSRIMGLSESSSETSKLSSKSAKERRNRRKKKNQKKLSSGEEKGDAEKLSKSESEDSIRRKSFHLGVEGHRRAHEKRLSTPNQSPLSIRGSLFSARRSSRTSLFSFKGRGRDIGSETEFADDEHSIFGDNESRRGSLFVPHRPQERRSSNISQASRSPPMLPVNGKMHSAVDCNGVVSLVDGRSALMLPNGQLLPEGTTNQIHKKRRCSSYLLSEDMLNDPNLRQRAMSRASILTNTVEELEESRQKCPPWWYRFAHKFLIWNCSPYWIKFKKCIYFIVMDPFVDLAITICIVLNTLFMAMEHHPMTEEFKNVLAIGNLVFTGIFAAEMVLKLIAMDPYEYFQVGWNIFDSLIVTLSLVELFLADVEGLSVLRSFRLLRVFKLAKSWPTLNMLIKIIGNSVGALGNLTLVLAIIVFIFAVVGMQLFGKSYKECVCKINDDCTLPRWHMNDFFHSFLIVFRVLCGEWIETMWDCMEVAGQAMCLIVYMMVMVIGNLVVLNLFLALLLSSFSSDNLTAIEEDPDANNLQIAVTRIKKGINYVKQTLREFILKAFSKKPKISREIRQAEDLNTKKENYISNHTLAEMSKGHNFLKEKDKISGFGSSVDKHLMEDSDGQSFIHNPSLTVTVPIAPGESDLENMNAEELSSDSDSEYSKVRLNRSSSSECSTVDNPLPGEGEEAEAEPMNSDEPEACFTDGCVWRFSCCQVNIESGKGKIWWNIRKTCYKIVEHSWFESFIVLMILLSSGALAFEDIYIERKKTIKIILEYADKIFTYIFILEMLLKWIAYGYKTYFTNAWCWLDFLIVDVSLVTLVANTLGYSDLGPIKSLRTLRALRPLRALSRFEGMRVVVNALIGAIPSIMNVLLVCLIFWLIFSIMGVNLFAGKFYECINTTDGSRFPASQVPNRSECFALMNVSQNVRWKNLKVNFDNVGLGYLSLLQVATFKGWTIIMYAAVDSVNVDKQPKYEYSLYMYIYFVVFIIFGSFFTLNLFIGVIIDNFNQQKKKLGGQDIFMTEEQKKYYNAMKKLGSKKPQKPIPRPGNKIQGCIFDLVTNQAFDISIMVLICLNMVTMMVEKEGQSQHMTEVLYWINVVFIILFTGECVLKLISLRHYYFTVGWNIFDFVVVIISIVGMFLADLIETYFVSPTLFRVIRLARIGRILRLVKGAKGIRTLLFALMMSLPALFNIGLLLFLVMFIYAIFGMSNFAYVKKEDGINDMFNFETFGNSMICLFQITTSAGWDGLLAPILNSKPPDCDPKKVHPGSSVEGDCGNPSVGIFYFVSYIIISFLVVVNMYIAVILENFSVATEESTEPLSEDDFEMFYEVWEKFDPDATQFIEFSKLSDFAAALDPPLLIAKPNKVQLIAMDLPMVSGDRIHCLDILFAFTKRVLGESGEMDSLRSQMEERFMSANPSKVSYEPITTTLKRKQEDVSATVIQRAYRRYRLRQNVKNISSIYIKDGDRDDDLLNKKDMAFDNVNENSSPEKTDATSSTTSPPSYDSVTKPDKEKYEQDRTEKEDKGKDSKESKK", "assay": "Patch voltage clamp electrophysiology assay (EP), Syncropatch 384PE, CHO cells expressing Nav1.7", "assay_type": "cell-based", "settings": "holding potential −50 mV; 7.5 min compound incubation; read-out: EP SP hNav1.7 EVO (IC50)", "description": "Example 101c: Electrophysiological Assay (EP) (In Vitro Assay)\nPatch voltage clamp electrophysiology allows for the direct measurement and quantification of block of voltage-gated sodium channels (NaV's), and allows the determination of the time- and voltage-dependence of block which has been interpreted as differential binding to the resting, open, and inactivated states of the sodium channel (Hille, B., Journal of General Physiology (1977), 69: 497-515).\nThe following voltage clamp electrophysiology studies are performed on representative compounds using cells heterologously expressing Nav1.7 or Nav1.5 channels. cDNAsfor Nav1.7 (NM_002977) and Nav1.5 (AC137587) are stably expressed in Chinese Hamstr Ovary (CHO) cells and CHL (Chinese Hamster Lung) cells respectively. Sodium currents are measured in the whole-cell configuration using Syncropatch 384PE (Nanlon Technologies, Germany). 1NPC®-384 chips with custom medium resistance and single hole mode are used. Internal solution consists of (in mM): […], 10 CsCl, 20 EGTA, and 10 Hepes (pH adjusted to 7.2); and external solution contains (in mM): 60 NMDG, 80 NaCl, 4 KCl, 1 MgCl2, 2 CaCl2), 2 D-Glucose monohydrate, 10 Hepes (pH adjusted to 7.4 with NaOH).\nAfter system flushing, testing compounds are dissolved in external solution containing 0.1% Pluronic F-127. The chip is moved into the measuring head and the instrument primes the chip with external and internal solutions. 10 μl cells are added to the chip from a cell hotel, and a negative pressure of −50 mBar is applied to form a seal. Following treatment with seal enhancer solution and wash-off with external solution, negative pressure of −250 mbar is applied for 1 second to achieve the whole-cell configuration, followed by three washing steps in external solution. 20 μl of compounds is added to 40 μl in each well (1:3 dilution of compounds), and after mixing, 20 μl is removed so the volume is retained at 40 ul. After approximately 13 minutes recordings, 20 μl/well of 2 uM TTX, or 333 uM Tetracaine (for Nav1.5) is added to achieve full block.\nFor voltage protocol, an holding potential of −50 mV is applied during the whole experiment. A depolarizing step is applied to −10 mV for 10 ms, followed by a hyperpolarization step to −150 mV for 20 ms to allow channel recovery from inactivation. A second depolarizing step is applied from −150 mV to −10 mV for 10 ms, where currents are measured to derive blocking effects of compounds. Inhibition is determined based on 7.5 min of compound incubation.", "note": "Where a name gives a salt, the structure may show the parent alone.", "data": [{"smiles": "CN(C)[C@]1(CCc2cccc(C(F)(F)F)c2)CCCN(c2ccc(S(=O)(=O)Nc3ccncn3)c(F)c2)C1", "note": "(single isomer, unassigned) [Example 1]", "values": [{"measurement": "IC50", "result": 6.88, "unit": "nM"}]}, {"smiles": "CN(C)[C@@]1(CCc2cccc(C(F)(F)F)c2)CCCN(c2ccc(S(=O)(=O)Nc3ccncn3)c(F)c2)C1", "note": "(single isomer, unassigned) [Example 2, formate]", "values": [{"measurement": "IC50", "result": 601, "unit": "nM"}]}, {"smiles": "CN[C@@]1(CCc2cccc(C(F)(F)F)c2)CCCN(c2ccc(S(=O)(=O)Nc3ccncn3)c(F)c2)C1", "note": "(single isomer, unassigned) [Example 4]", "values": [{"measurement": "IC50", "result": 638, "unit": "nM"}]}, {"smiles": "CN(C)[C@@]1(CCc2ccccc2)CCCN(c2ccc(S(=O)(=O)Nc3ccncn3)c(F)c2)C1", "note": "(single isomer, unassigned) [Example 5]", "values": [{"measurement": "IC50", "result": 10000, "unit": "nM"}]}, {"smiles": "CN(C)[C@]1(CCc2ccccc2)CCCN(c2ccc(S(=O)(=O)Nc3ccncn3)c(F)c2)C1", "note": "(single isomer, unassigned) [Example 6]", "values": [{"measurement": "IC50", "result": 48.9, "unit": "nM"}]}, {"smiles": "CN(C)[C@@]1(CCc2ccc(C(F)(F)F)cc2)CCCN(c2ccc(S(=O)(=O)Nc3ccncn3)c(F)c2)C1", "note": "(single isomer, unassigned) [Example 7]", "values": [{"measurement": "IC50", "result": 12.4, "unit": "nM"}]}, {"smiles": "CN(C)[C@]1(CCc2ccc(C(F)(F)F)cc2)CCCN(c2ccc(S(=O)(=O)Nc3ccncn3)c(F)c2)C1", "note": "(single isomer, unassigned) [Example 8]", "values": [{"measurement": "IC50", "result": 2070, "unit": "nM"}]}, {"smiles": "CN(C)[C@@]1(CCc2cccc(C(F)(F)F)c2)CCCN(c2cc(F)c(S(=O)(=O)Nc3ccncn3)cc2Cl)C1", "note": "(single isomer, unassigned) [Example 11]", "values": [{"measurement": "IC50", "result": 742, "unit": "nM"}]}, {"smiles": "CN(C)[C@]1(CCc2cccc(C(F)(F)F)c2)CCCN(c2cc(F)c(S(=O)(=O)Nc3ccncn3)cc2Cl)C1", "note": "(single isomer, unassigned) [Example 12]", "values": [{"measurement": "IC50", "result": 51.5, "unit": "nM"}]}, {"smiles": "CN(C)[C@@]1(CCc2cccc(C(F)(F)F)c2)CCCN(c2ccc(S(=O)(=O)Nc3nccs3)c(F)c2)C1", "note": "(single isomer, unassigned) [Example 13]", "values": [{"measurement": "IC50", "result": 1.53, "unit": "nM"}]}, {"smiles": "CN(C)[C@]1(CCc2cccc(C(F)(F)F)c2)CCCN(c2ccc(S(=O)(=O)Nc3nccs3)c(F)c2)C1", "note": "(single isomer, unassigned) [Example 14]", "values": [{"measurement": "IC50", "result": 58.7, "unit": "nM"}]}, {"smiles": "CN(C)[C@@]1(CCc2cccc(C(F)(F)F)c2)CCCN(c2cc(F)c(S(=O)(=O)Nc3ccncn3)c(F)c2)C1", "note": "(single isomer, unassigned) [Example 15]", "values": [{"measurement": "IC50", "result": 288, "unit": "nM"}]}, {"smiles": "CN(C)[C@]1(CCc2cccc(C(F)(F)F)c2)CCCN(c2cc(F)c(S(=O)(=O)Nc3ccncn3)c(F)c2)C1", "note": "(single isomer, unassigned) [Example 16]", "values": [{"measurement": "IC50", "result": 1.41, "unit": "nM"}]}, {"smiles": "CN(C)[C@@]1(CCc2cccc(C(F)(F)F)c2)CCCN(c2cc(F)c(S(=O)(=O)Nc3ccncn3)c(Cl)c2)C1", "note": "(single isomer, unassigned) [Example 17]", "values": [{"measurement": "IC50", "result": 314, "unit": "nM"}]}, {"smiles": "CN(C)[C@]1(CCc2cccc(C(F)(F)F)c2)CCCN(c2cc(F)c(S(=O)(=O)Nc3ccncn3)c(Cl)c2)C1", "note": "(single isomer, unassigned) [Example 18]", "values": [{"measurement": "IC50", "result": 1.83, "unit": "nM"}]}, {"smiles": "CN(C)[C@@]1(CCc2ccc(Cl)c(C(F)(F)F)c2)CCCN(c2ccc(S(=O)(=O)Nc3ccncn3)c(F)c2)C1", "note": "(single isomer, unassigned) [Example 19]", "values": [{"measurement": "IC50", "result": 60.4, "unit": "nM"}]}, {"smiles": "CN(C)[C@]1(CCc2ccc(Cl)c(C(F)(F)F)c2)CCCN(c2ccc(S(=O)(=O)Nc3ccncn3)c(F)c2)C1", "note": "(single isomer, unassigned) [Example 20, formate]", "values": [{"measurement": "IC50", "result": 2.74, "unit": "nM"}]}, {"smiles": "O=S(=O)(Nc1ccncn1)c1ccc(N2CCC[C@](CCc3cccc(C(F)(F)F)c3)(N3CCC3)C2)cc1F", "note": "(single isomer, unassigned) [Example 21]", "values": [{"measurement": "IC50", "result": 3180, "unit": "nM"}]}, {"smiles": "O=S(=O)(Nc1ccncn1)c1ccc(N2CCC[C@@](CCc3cccc(C(F)(F)F)c3)(N3CCC3)C2)cc1F", "note": "(single isomer, unassigned) [Example 22]", "values": [{"measurement": "IC50", "result": 84.4, "unit": "nM"}]}, {"smiles": "O=S(=O)(Nc1ccncn1)c1ccc(N2CCC[C@](CCc3cccc(C(F)(F)F)c3)(N3CCCC3)C2)cc1F", "note": "(single isomer, unassigned) [Example 23]", "values": [{"measurement": "IC50", "result": 8.62, "unit": "nM"}]}, {"smiles": "O=S(=O)(Nc1ccncn1)c1ccc(N2CCC[C@@](CCc3cccc(C(F)(F)F)c3)(N3CCCC3)C2)cc1F", "note": "(single isomer, unassigned) [Example 24]", "values": [{"measurement": "IC50", "result": 439, "unit": "nM"}]}, {"smiles": "O=S(=O)(Nc1ccncn1)c1ccc(N2CCC[C@](CCc3cccc(C(F)(F)F)c3)(N3CCCCC3)C2)cc1F", "note": "(single isomer, unassigned) [Example 25, formate]", "values": [{"measurement": "IC50", "result": 312, "unit": "nM"}]}, {"smiles": "O=S(=O)(Nc1ccncn1)c1ccc(N2CCC[C@@](CCc3cccc(C(F)(F)F)c3)(N3CCCCC3)C2)cc1F", "note": "(single isomer, unassigned) [Example 26, formate]", "values": [{"measurement": "IC50", "result": 19.5, "unit": "nM"}]}, {"smiles": "CN(C)CCN(C)[C@@]1(CCc2cccc(C(F)(F)F)c2)CCCN(c2ccc(S(=O)(=O)Nc3ccncn3)c(F)c2)C1", "note": "(single isomer, unassigned) [Example 27, formate]", "values": [{"measurement": "IC50", "result": 2150, "unit": "nM"}]}, {"smiles": "CN(C)CCN(C)[C@]1(CCc2cccc(C(F)(F)F)c2)CCCN(c2ccc(S(=O)(=O)Nc3ccncn3)c(F)c2)C1", "note": "(single isomer, unassigned) [Example 28, formate]", "values": [{"measurement": "IC50", "result": 8.08, "unit": "nM"}]}, {"smiles": "CN1CC(CN(C)[C@@]2(CCc3cccc(C(F)(F)F)c3)CCCN(c3ccc(S(=O)(=O)Nc4ccncn4)c(F)c3)C2)C1", "note": "(single isomer, unassigned) [Example 29]", "values": [{"measurement": "IC50", "result": 2.66, "unit": "nM"}]}, {"smiles": "CN1CC(CN(C)[C@]2(CCc3cccc(C(F)(F)F)c3)CCCN(c3ccc(S(=O)(=O)Nc4ccncn4)c(F)c3)C2)C1", "note": "(single isomer, unassigned) [Example 30, formate]", "values": [{"measurement": "IC50", "result": 13.5, "unit": "nM"}]}, {"smiles": "CN(C)[C@@]1(CCc2cc(C(F)(F)F)ccc2Cl)CCCN(c2cc(F)c(S(=O)(=O)Nc3ccncn3)c(F)c2)C1", "note": "(single isomer, unassigned) [Example 32]", "values": [{"measurement": "IC50", "result": 425, "unit": "nM"}]}, {"smiles": "CN(C)[C@]1(CCc2cc(C(F)(F)F)ccc2Cl)CCCN(c2cc(F)c(S(=O)(=O)Nc3ccncn3)c(F)c2)C1", "note": "(single isomer, unassigned) [Example 33, formate]", "values": [{"measurement": "IC50", "result": 1.89, "unit": "nM"}]}, {"smiles": "CN1CC(N(C)[C@@]2(CCc3cccc(C(F)(F)F)c3)CCCN(c3ccc(S(=O)(=O)Nc4ccncn4)c(F)c3)C2)C1", "note": "(single isomer, unassigned) [Example 34]", "values": [{"measurement": "IC50", "result": 1.82, "unit": "nM"}]}, {"smiles": "CN1CCC(N(C)[C@@]2(CCc3cccc(C(F)(F)F)c3)CCCN(c3ccc(S(=O)(=O)Nc4ccncn4)c(F)c3)C2)CC1", "note": "(single isomer, unassigned) [Example 36]", "values": [{"measurement": "IC50", "result": 2690, "unit": "nM"}]}, {"smiles": "CN1CCC(N(C)[C@]2(CCc3cccc(C(F)(F)F)c3)CCCN(c3ccc(S(=O)(=O)Nc4ccncn4)c(F)c3)C2)CC1", "note": "(single isomer, unassigned) [Example 37, formate]", "values": [{"measurement": "IC50", "result": 7.22, "unit": "nM"}]}, {"smiles": "CN(C)[C@@]1(CCc2cccc(C(F)(F)F)c2)CCCN(c2cc(F)c(S(=O)(=O)Nc3ccncn3)cc2F)C1", "note": "(single isomer, unassigned) [Example 38]", "values": [{"measurement": "IC50", "result": 28.8, "unit": "nM"}]}, {"smiles": "CN(C)[C@]1(CCc2cccc(C(F)(F)F)c2)CCCN(c2cc(F)c(S(=O)(=O)Nc3ccncn3)cc2F)C1", "note": "(single isomer, unassigned) [Example 39]", "values": [{"measurement": "IC50", "result": 9110, "unit": "nM"}]}, {"smiles": "CN(C)[C@]1(CCc2cccc(C(F)(F)F)c2Cl)CCCN(c2cc(F)c(S(=O)(=O)Nc3ccncn3)c(F)c2)C1", "note": "(single isomer, unassigned) [Example 41]", "values": [{"measurement": "IC50", "result": 1.07, "unit": "nM"}]}, {"smiles": "CN(C)[C@@]1(CCc2cc(Cl)cc(C(F)(F)F)c2)CCCN(c2cc(F)c(S(=O)(=O)Nc3ccncn3)c(F)c2)C1", "note": "(single isomer, unassigned) [Example 42]", "values": [{"measurement": "IC50", "result": 52, "unit": "nM"}]}, {"smiles": "CN1CC[C@@H](N(C)[C@@]2(CCc3cccc(C(F)(F)F)c3)CCCN(c3cc(F)c(S(=O)(=O)Nc4ccncn4)c(F)c3)C2)C1", "note": "(single isomer, unassigned) [Example 44]", "values": [{"measurement": "IC50", "result": 195, "unit": "nM"}]}]}
